Reference: patent US11512053B2, “Arginine methyltransferase inhibitors and uses thereof” (priority 2013, dated 2022)
Like-named read-outs stand apart in the source and are kept apart here.

Tests used:
[1] = biological target: full-length human PRMT1 isoform 1 (GST-tagged) (Homo sapiens, UniProt Q99873); assay: PRMT1 Biochemical Assay (3H-SAM Flashplate, peptide substrate)
Description: (§1) General Materials. S-adenosylmethionine (SAM), S-adenosylhomocysteine (SAH), bicine, Tween20, dimethylsulfoxide (DMSO), bovine skin gelatin (BSG), and Tris(2-carboxyethyl)phosphine hydrochloride solution (TCEP) were purchased from Sigma-Aldrich at the highest level of purity possible. ^3H-SAM was purchase from American Radiolabeled Chemicals with a specific activity of 80 Ci/mmol. 384-well streptavidin Flashplates were purchased from PerkinElmer.
Protein Expression. Recombinant baculovirus were generated according to Bac-to-Bac kit instructions (Life Technologies). […] Infections were carried out at 27° C. for 48 hours, harvested by centrifugation, and stored at −80° C. for purification.
Protein Purification. […] GST-tagged PRMT1 was eluted with 50 mM Tris, 2 mM glutathione, pH 7.8, dialysed in buffer A and concentrated to 1 mg/mL.
General Procedure for PRMT1 Enzyme Assays on Peptide Substrates. The assays were all performed in a buffer consisting of 20 mM Bicine (pH=7.6), 1 mM TCEP, 0.005% BSG, and 0.002% Tween 20, prepared on the day of use. […] DMSO (1 ul) was added to Columns 11, 12, 23, 24, rows A-H for the maximum signal control and 1 ul of SAH, a known product and inhibitor of PRMT1, was added to columns 11, 12, 23, 24, rows I-P for the minimum signal control. A cocktail (40 ul) containing the PRMT1 enzyme was added by Multidrop Combi (Thermo-Fisher). The compounds were allowed to incubate with PRMT1 for 30 min at room temperature, then a cocktail (10 ul) containing SAM and peptide was added to initiate the reaction (final volume=51 ul). […] The assays were stopped by the addition of non-radiolabeled SAM (10 ul) to a final concentration of 300 uM, which dilutes the ^3H-SAM to a level where its incorporation into the peptide substrate is no longer detectable. 50 ul of the reaction in the 384-well polypropylene plate was then transferred to a 384-well Flashplate and the biotinylated peptides were allowed to bind to the streptavidin surface for at least 1 hour before being washed once with 0.1% Tween20 in a Biotek ELx405 plate washer. The plates were then read in a PerkinElmer TopCount plate reader to measure the quantity of ^3H-labeled peptide bound to the Flashplate surface, measured as disintegrations per minute (dpm) or alternatively, referred to as counts per minute (cpm).
Where dpm=disintegrations per minute, cmpd=signal in assay well, and min and max are the respective minimum and maximum signal controls.
Where top and bottom are the normally allowed to float, but may be fixed at 100 or 0 respectively in a 3-parameter fit. The Hill Coefficient normally allowed to float but may also be fixed at 1 in a 3-parameter fit. Y is the % inhibition and X is the compound concentration.

[2] = biological target: full-length human PRMT6 (Flag- and His-tagged) (Homo sapiens, UniProt Q96LA8); assay: PRMT6 Biochemical Assay (3H-SAM Flashplate, peptide substrate)
Description: as §1, with “(BSG), sodium butyrate” for “(BSG),”
Substrates. Peptide representative of human histone H4 residues 36-50 was synthesized with an N-terminal linker-affinity tag motif and a C-terminal amide cap by 21st Century Biochemicals. The peptide was purified by high-performance liquid chromatography (HPLC) to greater than 95% purity and confirmed by liquid chromatography mass spectrometry (LC-MS). The sequence was Biot-Ahx-[…]-amide and contained a monomethylated lysine at position 44 (SEQ ID NO.:5).
Molecular Biology: Full-length human PRMT6 (NM_018137.2) transcript clone was amplified from an HEK 293 cDNA library, incorporating a flanking 5′ sequence encoding a FLAG tag ([…]) (SEQ ID NO.:6) fused directly to Ser 2 of PRMT6 and a 3′ sequence encoding a hexa His sequence (HHHHHH) (SEQ ID NO.:17) fused directly to Asp 375. The amplified gene was subcloned into pFastBacMam (Viva Biotech).
Protein Expression. Recombinant baculovirus were generated according to Bac-to-Bac kit instructions (Life Technologies). […] Infections were carried out at 37° C. for 48 hours, harvested by centrifugation, and stored at −80° C. for purification.
Protein Purification. […] Column was washed with 20 mM imidazole in the same buffer and Flag-PRMT6-His was eluted with 150 mM imidazole. Pooled fractions were dialysed against buffer N^1-A and further purified by anti-flag M2 affinity chromatography. Flag-PRMT6-His was eluted with 200 ug/ml FLAG peptide in the same buffer. Pooled fractions were dialysed in 20 mM Tris, 150 mM NaCl, 10% glycerol and 5 mM β-mercaptoethanol, pH 7.8. The purity of recovered protein was 95%.
General Procedure for PRMT6 Enzyme Assays on Peptide Substrates. The assays were all performed in a buffer consisting of 20 mM Bicine (pH=7.6), 1 mM TCEP, 0.005% BSG, and 0.002% Tween 20, prepared on the day of use. Compounds in 100% DMSO (1 ul) were spotted into a polypropylene 384-well V-bottom plates (Greiner) using a Platemate Plus outfitted with a 384-channel head (Thermo Scientific). DMSO (1 ul) was added to Columns 11, 12, 23, 24, rows A-H for the maximum signal control and 1 ul of SAH, a known product and inhibitor of PRMT6, was added to columns 11, 12, 23, 24, rows I-P for the minimum signal control. A cocktail (40 ul) containing the PRMT6 enzyme was added by Multidrop Combi (Thermo-Fisher). The compounds were allowed to incubate with PRMT6 for 30 min at room temperature, then a cocktail (10 ul) containing SAM and peptide was added to initiate the reaction (final volume=51 ul). The final concentrations of the components were as follows: PRMT6 was 1 nM, ^3H-SAM was 200 nM, non-radiolabeled SAM was 250 nM, peptide was 75 nM, SAH in the minimum signal control wells was 1 mM, and the DMSO concentration was 2%. The assays were stopped by the addition of non-radiolabeled SAM (10 ul) to a final concentration of 400 uM, which dilutes the ^3H-SAM to a level where its incorporation into the peptide substrate is no longer detectable. 50 ul of the reaction in the 384-well polypropylene plate was then transferred to a 384-well Flashplate and the biotinylated peptides were allowed to bind to the streptavidin surface for at least 1 hour before being washed once with 0.1% Tween20 in a Biotek ELx405 plate washer. The plates were then read in a PerkinElmer TopCount plate reader to measure the quantity of ^3H-labeled peptide bound to the Flashplate surface, measured as disintegrations per minute (dpm) or alternatively, referred to as counts per minute (cpm). […]

[3] = single experiment or average of multiple experiments
[4] = read-out: Biochemical IC50 PRMT6
[5] = single experiment or average of multiple experiments, read-out: Biochemical IC50 PRMT6

full-length human PRMT1 isoform 1 (GST-tagged), sequence (Q99873 with tags, fused parts or gaps): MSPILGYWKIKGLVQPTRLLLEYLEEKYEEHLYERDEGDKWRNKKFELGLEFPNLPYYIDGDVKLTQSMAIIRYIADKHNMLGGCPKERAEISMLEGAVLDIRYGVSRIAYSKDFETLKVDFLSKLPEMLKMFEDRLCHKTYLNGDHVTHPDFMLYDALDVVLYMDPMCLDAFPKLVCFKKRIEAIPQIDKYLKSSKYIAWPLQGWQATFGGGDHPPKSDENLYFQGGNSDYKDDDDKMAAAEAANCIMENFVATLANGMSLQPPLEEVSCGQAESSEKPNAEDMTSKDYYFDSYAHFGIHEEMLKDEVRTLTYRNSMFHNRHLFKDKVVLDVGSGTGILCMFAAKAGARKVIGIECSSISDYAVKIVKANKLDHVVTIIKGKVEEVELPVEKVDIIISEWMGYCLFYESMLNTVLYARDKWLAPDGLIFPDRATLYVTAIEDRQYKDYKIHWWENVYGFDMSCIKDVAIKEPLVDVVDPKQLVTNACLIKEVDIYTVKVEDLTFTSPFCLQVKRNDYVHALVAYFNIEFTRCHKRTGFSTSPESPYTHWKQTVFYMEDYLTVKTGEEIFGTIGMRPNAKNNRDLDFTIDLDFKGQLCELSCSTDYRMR
full-length human PRMT6 (Flag- and His-tagged), sequence (Q96LA8 with tags, fused parts or gaps): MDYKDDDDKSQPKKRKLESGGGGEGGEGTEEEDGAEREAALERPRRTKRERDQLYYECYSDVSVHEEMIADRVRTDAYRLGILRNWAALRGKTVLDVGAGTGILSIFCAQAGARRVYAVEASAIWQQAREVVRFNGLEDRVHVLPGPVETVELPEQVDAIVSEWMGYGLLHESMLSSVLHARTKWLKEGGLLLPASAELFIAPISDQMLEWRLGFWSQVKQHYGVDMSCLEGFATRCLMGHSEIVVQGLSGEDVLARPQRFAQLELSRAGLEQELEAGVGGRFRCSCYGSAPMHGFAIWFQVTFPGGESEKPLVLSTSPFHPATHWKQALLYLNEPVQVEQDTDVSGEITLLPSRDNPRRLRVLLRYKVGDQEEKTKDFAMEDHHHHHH

SMILES | IC50 [1] | IC50 [1, 3] | IC50 [2, 4] | IC50 [2, 5] | IC50 ([2]; Biochemical IC50 PRMT6) | IC50 ([2]; Biochemical IC50 PRMT6, single experiment or average of multiple experiments)
CNCCN(C)Cc1c[nH]nc1[C@H]1CC[C@H](O)C2(CCCCC2)C1 (racemic) [Compound 184, (1S,4S)-4-[4-({methyl[2-(methylamino)ethyl]amino}methyl)-1H-pyrazol-3-yl] spiro[5.5]undecan-1-ol] | < 100 nM | 19.8 nM | 101 to 1000 nM | 101 nM | – | –
CNCCN(C)Cc1c[nH]nc1[C@H]1CC[C@@H](O)C2(CCCCC2)C1 (single isomer, unassigned) [Compound 183] | < 100 nM | 13.5 nM | < 100 nM | 87.7 nM | – | –
CN(CCN)Cc1c[nH]nc1CCc1ccccc1 [Compound 9] | < 100 nM | 10 nM | < 100 nM | 10 nM | – | –
CNCCN(C)Cc1c[nH]nc1[C@H]1CC[C@@H](N(CC2CCOCC2)C(=O)CC(C)C)CC1 [Compound 107] | < 100 nM | 21.2 nM | 101 to 1000 nM | 130 nM | – | –
CCC(=O)N(CC1CCOCC1)[C@H]1CC[C@H](c2n[nH]cc2CN(C)CCNC)CC1 [Compound 109] | < 100 nM | 26.7 nM | 101 to 1000 nM | 124 nM | – | –
CNCCN(C)Cc1c[nH]nc1C1CCC(=O)N(CCc2ccccc2)C1 (stereo not shown) [Compound 110] | < 100 nM | 13.1 nM | < 100 nM | 29.4 nM | – | –
CNCCN(C)Cc1c[nH]nc1C1CCCC(COCCOC)C1 (stereo not shown) [Compound 112] | < 100 nM | 18.9 nM | < 100 nM | 57.4 nM | – | –
CNCCN(C)Cc1c[nH]nc1C1CCCC(COCCC(O)CO)C1 (stereo not shown) [Compound 113] | < 100 nM | 57.2 nM | < 100 nM | 66.9 nM | – | –
CNCCN(C)Cc1c[nH]nc1C1CCC(N(CC(C)C)C(=O)CC2CCOCC2)CC1 (stereo not shown) [Compound 114] | 101 to 1000 nM | 101 nM | < 100 nM | 92.6 nM | – | –
CNCCN(C)Cc1c[nH]nc1[C@H]1CC[C@H](OCCOc2ccc(OCCOC)cc2)CC1 [Compound 116] | < 100 nM | 9.8 nM | – | – | < 100 nM | 18.7 nM
CNCCN(C)Cc1c[nH]nc1C1CC(OC(C)C)CC(OC(C)C)C1 (stereo not shown) [Compound 118] | 1010 to 3000 nM | 2160 nM | > 10000 nM | > 10000 nM | – | –
CNCCN(C)Cc1c[nH]nc1[C@H]1CC[C@@]2(CCN(Cc3ccc(OCCOC)cc3)C2=O)CC1 [Compound 120] | < 100 nM | 10.1 nM | < 100 nM | 42.8 nM | – | –

The next lines start with the values.

IC50 [1] | IC50 [1, 3] | IC50 [2, 4] | IC50 [2, 5] | IC50 ([2]; Biochemical IC50 PRMT6) | IC50 ([2]; Biochemical IC50 PRMT6, single experiment or average of multiple experiments) | SMILES
< 100 nM | 8.04 nM | < 100 nM | 40.5 nM | – | – | CNCCN(C)Cc1c[nH]nc1[C@H]1CC[C@]2(CCC(C)(C)O2)CC1 [Compound 104]
< 100 nM | 9.5 nM | < 100 nM | 13.5 nM | – | – | CNCCN(C)Cc1c[nH]nc1[C@H]1CC[C@@]2(CCOC2(C)C)CC1 [Compound 106, Methyl [2-(methylamino)ethyl]([3-[(5R,8R)-1,1-dimethyl-2-oxaspiro[4.5]decan-8-yl]-1H-pyrazol-4-yl]methyl)amine]
< 100 nM | 61 nM | 101 to 1000 nM | 326 nM | – | – | CCC(=O)N(CC1CCOCC1)[C@H]1CC[C@@H](c2n[nH]cc2CN(C)CCNC)CC1 [Compound 108]
< 100 nM | 22.4 nM | < 100 nM | 45.5 nM | – | – | CNCCN(C)Cc1c[nH]nc1[C@H]1CC[C@]2(CCN(Cc3ccc(OCCOC)cc3)C2=O)CC1 [Compound 111]
< 100 nM | 88.7 nM | < 100 nM | 62.7 nM | – | – | CNCCN(C)Cc1c[nH]nc1C1CCC(=O)N(Cc2ccccc2)C1 (stereo not shown) [Compound 115]
< 100 nM | 38.6 nM | < 100 nM | 96.2 nM | – | – | CNCCN(C)Cc1c[nH]nc1C1CCC(=O)N(CCC(C)C)C1 (stereo not shown) [Compound 117]
101 to 1000 nM | 124 nM | 1010 to 3000 nM | 2750 nM | – | – | CCOCC1CC(COCC)CC(c2n[nH]cc2CN(C)CCNC)C1 (stereo not shown) [Compound 119]
